Data on 41 compounds can be found in patent US20260132129A1 (Genesis Therapeutics, Inc., priority 2022, published 2026).

This assay has as its target T1, PI3Kα H1047R (T47D cells) (Homo sapiens, UniProt P42336, H1047R).
T1 construct: endogenous in cells; host or cells: T47D cells
Briefly: PI3Kα cellular assay: pAKT HTRF in T47D cells after EGF stimulation. The format is cell-based. The note with it: for IC50: T47D cells (PI3Kα H1047R), pAKT S473 HTRF, EGF stimulation. The gist of the method:
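pAKT read by HTRF in lysates of EGF-stimulated (20 ng/mL, 10 min) T47D H1047R cells. Before stimulation, serum-starved cells (16 h) received compound for 1 h at 37 °C, dosed from 10,000 nM down to 0.5 nM in 3-fold steps.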
(In general: In TR-FRET formats the signal depends on donor and acceptor labels being close together.)

T1 sequence (P42336 whole entry H1047R): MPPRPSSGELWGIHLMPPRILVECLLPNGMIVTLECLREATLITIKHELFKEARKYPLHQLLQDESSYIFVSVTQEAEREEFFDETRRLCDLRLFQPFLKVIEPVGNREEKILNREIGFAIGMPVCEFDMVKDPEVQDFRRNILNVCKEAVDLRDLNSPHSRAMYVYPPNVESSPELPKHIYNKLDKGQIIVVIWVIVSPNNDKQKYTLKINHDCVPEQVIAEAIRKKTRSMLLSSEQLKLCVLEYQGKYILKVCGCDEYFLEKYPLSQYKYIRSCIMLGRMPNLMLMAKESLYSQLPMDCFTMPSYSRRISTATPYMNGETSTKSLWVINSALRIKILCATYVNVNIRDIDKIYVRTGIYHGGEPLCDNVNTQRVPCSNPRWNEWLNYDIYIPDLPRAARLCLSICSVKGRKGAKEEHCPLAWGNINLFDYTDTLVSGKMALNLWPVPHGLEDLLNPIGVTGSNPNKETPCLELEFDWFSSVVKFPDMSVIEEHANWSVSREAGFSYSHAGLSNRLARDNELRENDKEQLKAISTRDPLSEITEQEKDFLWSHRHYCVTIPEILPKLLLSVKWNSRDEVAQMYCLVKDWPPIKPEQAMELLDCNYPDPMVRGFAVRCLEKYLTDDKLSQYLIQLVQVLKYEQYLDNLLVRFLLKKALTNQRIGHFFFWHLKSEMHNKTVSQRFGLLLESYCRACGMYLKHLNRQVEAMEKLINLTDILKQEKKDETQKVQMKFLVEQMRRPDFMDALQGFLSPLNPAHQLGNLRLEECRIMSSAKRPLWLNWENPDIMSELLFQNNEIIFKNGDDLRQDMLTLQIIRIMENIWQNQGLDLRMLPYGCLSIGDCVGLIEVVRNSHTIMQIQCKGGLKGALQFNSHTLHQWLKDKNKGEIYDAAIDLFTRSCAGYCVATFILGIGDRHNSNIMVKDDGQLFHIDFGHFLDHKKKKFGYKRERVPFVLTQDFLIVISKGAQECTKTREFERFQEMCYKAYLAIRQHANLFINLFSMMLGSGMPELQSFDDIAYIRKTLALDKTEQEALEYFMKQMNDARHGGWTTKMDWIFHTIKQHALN
T1 sequence (P27986 whole entry partner): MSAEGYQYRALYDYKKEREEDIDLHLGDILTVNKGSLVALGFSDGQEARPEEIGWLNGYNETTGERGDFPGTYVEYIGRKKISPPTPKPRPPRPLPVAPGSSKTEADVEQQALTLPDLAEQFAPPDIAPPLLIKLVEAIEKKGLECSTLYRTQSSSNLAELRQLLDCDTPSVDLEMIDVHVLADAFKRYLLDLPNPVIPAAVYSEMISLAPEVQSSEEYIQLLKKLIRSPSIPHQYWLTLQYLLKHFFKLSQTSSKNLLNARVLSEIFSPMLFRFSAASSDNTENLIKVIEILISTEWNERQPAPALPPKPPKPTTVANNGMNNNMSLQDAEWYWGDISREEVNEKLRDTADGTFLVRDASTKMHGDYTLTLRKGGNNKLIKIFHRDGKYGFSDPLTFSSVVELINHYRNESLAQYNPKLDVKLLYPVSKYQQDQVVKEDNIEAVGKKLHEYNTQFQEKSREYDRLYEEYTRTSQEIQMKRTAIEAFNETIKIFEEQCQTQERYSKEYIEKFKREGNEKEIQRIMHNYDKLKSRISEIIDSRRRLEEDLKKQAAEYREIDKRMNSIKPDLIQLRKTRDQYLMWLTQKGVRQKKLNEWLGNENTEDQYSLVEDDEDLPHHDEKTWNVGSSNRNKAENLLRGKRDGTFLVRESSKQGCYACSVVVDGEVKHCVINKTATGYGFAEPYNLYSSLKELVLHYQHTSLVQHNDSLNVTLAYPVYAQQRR

For orientation: IC50 means the concentration at which inhibition is half-maximal. Lower therefore signals inhibition by little substance. On to `CC(=O)N1CCC(c2ccc(-c3nc4c([C@H](C)Nc5ccccc5C(=O)O)cc(C)cn4c(=O)c3C)cc2)CC1` [Compound 1290], for which the IC50 is more than 2000 nM and the “T47D pAKT S473 HTRF IC50 (H1047R): T47D (H1047R) selectivity over SKBR3 (WT)” value is recorded as “C (C denotes ≤5-fold)”.

For `COc1cc(-c2nc3c([C@@H](C)Nc4ccccc4C(=O)O)cc(C)cn3c(=O)c2C)cn2ncc(C#N)c12` [Compound 1291], the IC50 was 100 to 500 nM and the “T47D pAKT S473 HTRF IC50 (H1047R): T47D (H1047R) selectivity over SKBR3 (WT)” value is “A (A denotes >20-fold)”. On the same counts, the results for `COc1cc(-c2nc3c([C@H](C)Nc4ccccc4C(=O)O)cc(C)cn3c(=O)c2C)cn2ncc(C#N)c12` [Compound 1292] are more than 2000 nM and “C (C denotes ≤5-fold)”.

As to `Cc1cc(C(C)Nc2ccccc2C(=O)O)c2nc(C3CCCN(CC(F)F)C3)c(C)c(=O)n2c1` (centres unmarked) [Compound 1293], the IC50 was 100 to 500 nM and the “T47D pAKT S473 HTRF IC50 (H1047R): T47D (H1047R) selectivity over SKBR3 (WT)” value is recorded as “A (A denotes >20-fold)”.

On to `Cc1cc([C@@H](C)Nc2ccccc2S(N)(=O)=O)c2nc(-c3ccc(C4CCOCC4)nc3)c(C)c(=O)n2c1` [Compound 1294], for which the IC50 fell in the range of 500 to 2000 nM and the “T47D pAKT S473 HTRF IC50 (H1047R): T47D (H1047R) selectivity over SKBR3 (WT)” value is on record as “B (B denotes 20-fold≥value>5-fold)”. For `Cc1cc([C@H](C)Nc2ccccc2S(N)(=O)=O)c2nc(-c3ccc(C4CCOCC4)nc3)c(C)c(=O)n2c1` [Compound 1295] the same measures were less than 100 nM and “A (A denotes >20-fold)”. Consider `Cc1cc([C@@H](C)Nc2ccccc2C(=O)O)c2nc(-c3cnc(C4CCOCC4)nc3)c(C)c(=O)n2c1` [Compound 1296], for which the IC50 fell in the range of 100 to 500 nM and the “T47D pAKT S473 HTRF IC50 (H1047R): T47D (H1047R) selectivity over SKBR3 (WT)” value is “A (A denotes >20-fold)”.

For `Cc1cc([C@H](C)Nc2ccccc2C(=O)O)c2nc(-c3cnc(C4CCOCC4)nc3)c(C)c(=O)n2c1` [Compound 1297], the IC50 is more than 2000 nM and the “T47D pAKT S473 HTRF IC50 (H1047R): T47D (H1047R) selectivity over SKBR3 (WT)” value is recorded as “C (C denotes ≤5-fold)”. For `Cc1cc([C@@H](C)Nc2ccccc2C(=O)O)c2nc(-c3ccc4ccnn4c3)c(C)c(=O)n2c1` [Compound 1298] the same measures were less than 100 nM and “A (A denotes >20-fold)”. As to `Cc1cc([C@H](C)Nc2ccccc2C(=O)O)c2nc(-c3ccc4ccnn4c3)c(C)c(=O)n2c1` [Compound 1299], the IC50 was more than 2000 nM and the “T47D pAKT S473 HTRF IC50 (H1047R): T47D (H1047R) selectivity over SKBR3 (WT)” value is reported as “C (C denotes ≤5-fold)”.

Take `Cc1cc(C(C)Nc2ccccc2C(=O)O)c2nc(-c3ccc(C4CCN(C(=O)C5CC5)CC4)c(F)c3)c(C)c(=O)n2c1` (centres unmarked) [Compound 1300]: the IC50 is less than 100 nM and the “T47D pAKT S473 HTRF IC50 (H1047R): T47D (H1047R) selectivity over SKBR3 (WT)” value is on record as “A (A denotes >20-fold)”. For `Cc1cc(C(C)Nc2ccccc2C(=O)O)c2nc(-c3ccc(C4CCNCC4)nc3)c(C)c(=O)n2c1` (centres unmarked) [Compound 1302] the same measures were more than 2000 nM and “C (C denotes ≤5-fold)”. On the same counts, the results for `Cc1cc(C(C)Nc2ccccc2C(=O)O)c2nc(-c3ccc(C4CNC4)nc3)c(C)c(=O)n2c1` (centres unmarked) [Compound 1303] are more than 2000 nM and “C (C denotes ≤5-fold)”.

Take `Cc1cc(C(C)Nc2ccccc2S(N)(=O)=O)c2nc(-c3ccc(C4CCNCC4)nc3)c(C)c(=O)n2c1` (centres unmarked) [Compound 1304]: the IC50 was in the range of 500 to 2000 nM and the “T47D pAKT S473 HTRF IC50 (H1047R): T47D (H1047R) selectivity over SKBR3 (WT)” value is given as “B (B denotes 20-fold≥value>5-fold)”. For `Cc1cc(C(C)Nc2ccccc2S(N)(=O)=O)c2nc(-c3ccc(C4CNC4)nc3)c(C)c(=O)n2c1.O=C(O)C(F)(F)F` (centres unmarked) [Compound 1305], the IC50 is more than 2000 nM and the “T47D pAKT S473 HTRF IC50 (H1047R): T47D (H1047R) selectivity over SKBR3 (WT)” value is given as “C (C denotes ≤5-fold)”. On to `Cc1cc([C@H](C)Nc2ccccc2C(=O)O)c2nc(-c3ccc(CNc4[nH]cc(C)c4C#N)c(C)c3)c(C)c(=O)n2c1` [Compound 1307], for which the “T47D pAKT S473 HTRF IC50 (H1047R): T47D (H1047R) selectivity over SKBR3 (WT)” value is on record as “B (B denotes 20-fold≥value>5-fold)”.

With `Cc1cc(C(C)Nc2ccccc2C(=O)O)c2nc(C3CCN(CC(F)F)CC3)cc(=O)n2c1` (centres unmarked) [Compound 1308], the IC50 lay in the range of 100 to 500 nM and the “T47D pAKT S473 HTRF IC50 (H1047R): T47D (H1047R) selectivity over SKBR3 (WT)” value was “A (A denotes >20-fold)”. On the same counts, the results for `Cc1cc([C@@H](C)Nc2ccccc2S(N)(=O)=O)c2nc([C@@H]3CCCN(CC(F)F)C3)c(C)c(=O)n2c1` [Compound 1309] are 500 to 2000 nM and “B (B denotes 20-fold≥value>5-fold)”.

As to `Cc1cc([C@@H](C)Nc2ccccc2S(N)(=O)=O)c2nc([C@H]3CCCN(CC(F)F)C3)c(C)c(=O)n2c1` [Compound 1310], the IC50 was more than 2000 nM and the “T47D pAKT S473 HTRF IC50 (H1047R): T47D (H1047R) selectivity over SKBR3 (WT)” value is recorded as “C (C denotes ≤5-fold)”. For `Cc1cc([C@H](C)Nc2ccccc2S(N)(=O)=O)c2nc([C@@H]3CCCN(CC(F)F)C3)c(C)c(=O)n2c1` [Compound 1311] the same measures were more than 2000 nM and “C (C denotes ≤5-fold)”. For `Cc1cc([C@H](C)Nc2ccccc2S(N)(=O)=O)c2nc([C@H]3CCCN(CC(F)F)C3)c(C)c(=O)n2c1` [Compound 1312] the same measures were less than 100 nM and “A (A denotes >20-fold)”.

`Cc1cc(C(C)Nc2ccccc2C(=O)O)c2nc(-c3ccc(CC4CCN(C(=O)C5CC5)CC4)c(F)c3)c(C)c(=O)n2c1` (centres unmarked) [Compound 1313]: the IC50 is 100 to 500 nM and the “T47D pAKT S473 HTRF IC50 (H1047R): T47D (H1047R) selectivity over SKBR3 (WT)” value is “A (A denotes >20-fold)”. For `Cc1cc([C@@H](C)Nc2ccccc2C(=O)O)c2nc(-c3ccc(CC4CCN(C(=O)C5CC5)CC4)c(F)c3)c(C)c(=O)n2c1` [Compound 1314] the same measures were 100 to 500 nM and “A (A denotes >20-fold)”.

With `Cc1cc([C@H](C)Nc2ccccc2C(=O)O)c2nc(-c3ccc(CC4CCN(C(=O)C5CC5)CC4)c(F)c3)c(C)c(=O)n2c1` [Compound 1315], the “T47D pAKT S473 HTRF IC50 (H1047R): T47D (H1047R) selectivity over SKBR3 (WT)” value is “C (C denotes ≤5-fold)”. For the compound `Cc1cc([C@@H](C)Nc2ccccc2C(=O)O)c2nc(-c3ccc(C4CCC(C(=O)C5CC5)CC4)c(F)c3)c(C)c(=O)n2c1` (some centres unmarked) [Compound 1318], the “T47D pAKT S473 HTRF IC50 (H1047R): T47D (H1047R) selectivity over SKBR3 (WT)” value is on record as “C (C denotes ≤5-fold)”. Same read-out and setting: for `Cc1cccc(-c2nc3c([C@H](C)Nc4ccccc4S(C)(=O)=O)cc(C)cn3c(=O)c2C)c1` [Compound 1320] the value was “B (B denotes 20-fold≥value>5-fold)”; for `Cc1cccc(-c2nc3c(C(C)Nc4ccccc4C(=O)CS(=O)(=O)N(C)C)cc(C)cn3c(=O)c2C)c1` (centres unmarked) [Compound 1321], “B (B denotes 20-fold≥value>5-fold)”; for `Cc1cc(C(C)Nc2ccccc2C(=O)O)c2nc(C3=CCC(C4CN(C)C4)C=C3)c(C)c(=O)n2c1` (centres unmarked) [Compound 1322], “C (C denotes ≤5-fold)”. As for `Cc1cc([C@@H](C)Nc2ccccc2S(N)(=O)=O)c2nc(N3Cc4cccnc4C3)c(C)c(=O)n2c1` [Compound 1323], the IC50 is less than 100 nM and the “T47D pAKT S473 HTRF IC50 (H1047R): T47D (H1047R) selectivity over SKBR3 (WT)” value is “A (A denotes >20-fold)”. For the compound `Cc1cc([C@H](C)Nc2ccccc2S(N)(=O)=O)c2nc(N3Cc4cccnc4C3)c(C)c(=O)n2c1` [Compound 1324], the “T47D pAKT S473 HTRF IC50 (H1047R): T47D (H1047R) selectivity over SKBR3 (WT)” value is given as “A (A denotes >20-fold)”. Still for that read-out and setting: for `CCc1ccn2c(=O)c(C)c(-c3cccc(F)c3)nc2c1[C@@H](C)Nc1ccccc1C(=O)O` [Compound 1325] the value was “C (C denotes ≤5-fold)”.

In the case of `CCc1ccn2c(=O)c(C)c(-c3cccc(F)c3)nc2c1[C@H](C)Nc1ccccc1C(=O)O` [Compound 1326], the IC50 was less than 100 nM and the “T47D pAKT S473 HTRF IC50 (H1047R): T47D (H1047R) selectivity over SKBR3 (WT)” value is on record as “A (A denotes >20-fold)”. Consider `Cc1cc([C@H](C)Nc2ccccc2S(=O)(=O)O)c2nc(-c3cccc(C4CC4)c3)cc(=O)n2c1` [Compound 1327], for which the “T47D pAKT S473 HTRF IC50 (H1047R): T47D (H1047R) selectivity over SKBR3 (WT)” value was “B (B denotes 20-fold≥value>5-fold)”.

As to `Cc1cc([C@@H](C)Nc2ccccc2C(=O)O)c2nc([C@H]3CCCC(CC(F)F)C3)c(C)c(=O)n2c1` (some centres unmarked) [Compound 1329], the “T47D pAKT S473 HTRF IC50 (H1047R): T47D (H1047R) selectivity over SKBR3 (WT)” value was “A (A denotes >20-fold)”. With `Cc1cc([C@H](C)Nc2ccccc2C(=O)O)c2nc([C@H]3CCCC(CC(F)F)C3)c(C)c(=O)n2c1` (some centres unmarked) [Compound 1331], the “T47D pAKT S473 HTRF IC50 (H1047R): T47D (H1047R) selectivity over SKBR3 (WT)” value is recorded as “C (C denotes ≤5-fold)”. On the same count and under the same terms, the value for `CC(=O)N1CCC(Cc2ccc(-c3nc4c([C@H](C)Nc5ccccc5C(=O)O)cc(C)cn4c(=O)c3C)cc2F)CC1` [Compound 1334] was “B (B denotes 20-fold≥value>5-fold)”; that for `Cc1cc(C(C)Nc2ccccc2C(=O)O)c2nc(-c3cnc(C4CCN(C(=O)C5CC5)CC4)nc3)c(C)c(=O)n2c1` (centres unmarked) [Compound 1336] was “C (C denotes ≤5-fold)”; that for `Cc1cc(C(C)Oc2ccccc2C(=O)O)c2nc(-c3cccc(F)c3)c(C)c(=O)n2c1` (centres unmarked) [Compound 1337] was “C (C denotes ≤5-fold)”. Regarding `Cc1cc([C@@H](C)Nc2ccccc2C(=O)O)c2nc(-c3ccc(C4CCCC(C)C4)cc3)c(C)c(=O)n2c1` (some centres unmarked) [Compound 1338], the “T47D pAKT S473 HTRF IC50 (H1047R): T47D (H1047R) selectivity over SKBR3 (WT)” value is given as “C (C denotes ≤5-fold)”. In the case of `Cc1cc([C@H](C)Nc2ccccc2C(=O)O)c2nc(-c3ccc(C4CCC(C)CC4)cc3)cc(=O)n2c1` (some centres unmarked) [Compound 1341], the “T47D pAKT S473 HTRF IC50 (H1047R): T47D (H1047R) selectivity over SKBR3 (WT)” value was “B (B denotes 20-fold≥value>5-fold)”. The same measure, in the same setting: for `Cc1cc([C@@H](C)Nc2ccccc2C(=O)O)c2nc(-c3ccc(C4CN(C)C4)nc3)c(C)c(=O)n2c1` [Compound 1342] the value was “C (C denotes ≤5-fold)”.
